Consider two substances from patent US20120070451A1, “METHODS AND COMPOSITIONS FOR MODULATING CARDIAC CONTRACTILITY” (Consiglio Nazionale Delle Ricerche, priority 2009, published 2012).

The subject of one test is Cavβ2. The test is described as follows: Cavβ2 phosphorylation in hearts of insulin-treated mice (PAS antibody). The format is in vivo, mouse. To be noted: 1 mU/g insulin, 20 min post treatment. The procedure: FIG. 4. Akt interacts with and phosphorylates Cavβ2. (A) Coimmunoprecipitation assay of Akt and Cavβ2. Ventricular homogenates from WT and HA-E40K-Akt transgenic mice (Tg Akt) immunoprecipitated with antibodies against HA and immunoblotted for Cavβ2 as well as HA as a control. (B) Examination of Cavβ2 phosphorylation by Akt. In vitro kinase assays were performed with immunoprecipitated Cavβ2 incubated with recombinant active Akt and ^32P labeled ATP (left) or immunoprecipitated Cavβ2 from WT and KO cardiac extracts from mice treated or not with insulin (1 mU/g) using PAS (Phospho-Akt Substrate) antibody (right). (C) Back-phosphorylation assay of Cavβ2 from WT and KO hearts. Immunoprecipitated Cavβ2 from solubilized membranes was in vitro back-phosphorylated using recombinant active Akt and [γ^32]ATP. Precipitate amounts were assayed for ^32PCavβ2 and total Cavβ2. Representative experiments are shown (n=4).
To determine whether Cavβ2 can be phosphorylated by Akt, Cavβ2-immunoprecipitates from cardiac homogenates were incubated with recombinant active Akt and [γ-^32]ATP. A band corresponding to phosphorylated Cavβ2 was detected only in the presence of the kinase (FIG. 4B, left panel). To determine whether the Cavβ2 subunit was phosphorylated by Akt in vivo, we treated overnight-starved mice with 1 mU/g insulin to induce activation of Akt (Bayascas et al., 2008). […]

The next test deals with Cavα1. Briefly: Western blot of Cavα1 protein level in 293T cells co-transfected with Cavα1 and Cavβ2 variants. The format is cell-based. The procedure: FIG. 5. Akt phosphorylation of Cavβ2 protects Cavα1 from protein degradation. (A-C) YFP-Cavα1 co-transfected 293T cells with the indicated mutant variant of Cavβ2. Cells were serum-starved overnight and treated with (A) […] or (B-C) 5 μM Akt inhibitor as indicated. The expression of YFP-Cavα1 in lysates was monitored by Western blot analysis with anti-YFP antibody, and normalized based on transfection efficiency (Cav(32) and protein amount (Tubulin) (n=3). (D) Cavα1 and Cavβ2 co-transfected 293T cells were treated with siAkt expressing vector as indicated. 3 days post transfection, cell lysate was tested by Western blot analysis. Protein loading was normalized to GAPDH levels. Representative experiments are shown (n=3).
FIG. 12. Cavβ2 interacts with Akt isoforms and Akt affects Cavα1 protein stability. (A) Immunoprecipitated Akt isoforms from WT cardiac extracts from mice treated or not with insulin (1 mU/g) assayed for Cavβ2. Input protein in each co-immunoprecipitation is shown. (B) Cavα1, Cavα1-ΔP, or Cavα1-ΔH co-transfected 293T cells with either Cavβ2 or Cavβ2-SE were infected with indicated active (AdAkt) or dominant negative (AdAktDN) Akt expressing adenoviral vectors. Cells were serum-starved overnight as indicated. The expression of Cavα1 and phosphorylation of GSK in lysates was monitored by Western blot analysis. (C) Cavα1, Cavα1-ΔP, or Cavα1 co-transfected 293T cells with either Cavβ2 or Cavβ2-SE were treated with siAkt expressing vector as indicated. 3 days post transfection, cells were lysated for protein extraction. Protein loading was normalized to GAPDH levels. Representative experiments are shown (n=3).
To directly assess whether Akt phosphorylation of Cavβ2 protects Cavα1 from protein degradation, we constructed a mutant of Cavβ2 in which the Serine 625, contained in the putative Akt—consensus site (R—X—X—R—S/T), was replaced by Glutamate (Cavβ2-SE) to mimic phosphorylation. […]
Proteins expression was evaluated in total lysates or cell fractions by Western blot analysis according to standard procedures. […]
On the technique in general: A western blot detects proteins with antibodies after separation by electrophoresis.

The subject of another test is Cavα1 currents. The test is described as follows: Whole-cell patch clamp Ca2+ current (ICa,L) in cotransfected tsA-201 cells with or without serum. Particulars: cotransfection with Cavα1; 36 h. The format is cell-based. The procedure:
FIG. 6. Akt phosphorylation of Cavβ2 preserves Cavα1 currents. Ca^2+ currents recorded in cotransfected tsA-201 cells with YFP-Cavα1 and either Cavβ2-WT, Cavβ2-SE, or Cavβ2-SA mutant, cultivated for 36 h in the presence or absence of fetal bovine serum (10%). Currents were recorded 1-2 minutes after the whole-cell configuration was achieved (i.e. after stabilization of the current) and were elicited by a 0 mV depolarization of 200 ms duration applied from a holding potential of −80 mV. Currents are normalized to cell capacitance (Current density, pA/pF). Representative current traces are shown. n>35 at each condition, (*P<0.05 compared to YFP-Cavα1, ANOVA).
FIG. 7. […] (C) Wild-type Cavα1 subunit (alone or cotransfected with Cavβ2SE) and its in-frame ΔPEST mutants (Cavα1-ΔP and Cavα1-ΔH) half-lives were determined in COST cells. After overnight starvation, transfected cells were pulse-chased and analyzed along a time course (*P<0.001 compared to Cavα1, ANOVA; n=3). […] (F) Ca^2+ currents recorded in tsA-201 cells cotransfected with Cavβ2-WT and either Cavα1-WT or Cavα1-ΔH and cultivated for 36 h in the presence or absence of fetal bovine serum (10%). […]
Macroscopic Ice, was recorded at room temperature (˜22° C.) using the whole-cell patch clamp technique in native cells as previously described (Aimond et al., 2005; Maier et al., 2003). […]
A general note: The patch-clamp technique gives a direct electrical read-out from membranes.

For insulin [reference compound], the “Phosphorylation of Cavβ2 in heart” value in the test on Cavβ2 is recorded as “insulin-stimulated phosphorylation of Cavβ2 in WT but not in KO hearts”. Further, in the test with Cavα1 (Cavβ2-WT cotransfected cells), the “Cavα1 expression on insulin treatment” value was “increased”.

In the case of “Cavβ2-SE: mutant of Cavβ2 in which Serine 625 in the Akt consensus site was replaced by Glutamate to mimic phosphorylation”, the “ICa,L in serum-free medium compared to serum-containing medium” value with Cavα1 currents is recorded as “completely counteracted this reduction”. The “Cavα1 protein level under Akt inhibitor” value in the test with Cavα1 (5 μM Akt inhibitor) is “counteracted the downregulation of Cavα1”. The “Cavα1 protein levels compared to cotransfection with Cavβ2-WT” value with Cavα1 (293T cells cotransfected with Cavα1) is reported as “increased”.
